The series is described as follows: Thermo Scientific Acclaim RSLC 120 C18, 100 × 2.1 mm, 2.2 µm, 30 °C; A: 90% water + 10% methanol + 0.01% formic acid + 5 mM ammonium formate; B: methanol + 0.01% formic acid + 5 mM ammonium formate; gradient (min/%B) 0.1/1 3/39 14/99.9 16/99.9. The following applies: stereoisomer not certain.
Regarding `Cc1c(C(=O)c2cccc3ccccc23)c2cccc3c2n1C(CN1CCOCC1)CO3` (stereo not drawn), the LC retention time was determined as 10.9 min.

As for `COc1cc2c(cc1OC)CC(=O)N(CCCN(C)CC1Cc3cc(OC)c(OC)cc31)CC2` (stereo not drawn), the LC retention time came to 5.02 min.

Take `O=c1ccc2cc(OC3OC(CO)C(O)C(O)C3O)c(O)cc2o1` (stereo not drawn): the LC retention time turned out to be 3.69 min.

For `CCOC(=O)C(SP(=S)(OC)OC)c1ccccc1` (stereo not drawn), the LC retention time came to 10.7 min.

In the case of `CCC(NC)C(=O)c1ccccc1` (stereo not drawn), the LC retention time was determined as 4.26 min.

`COP(=S)(OC)Oc1ccc(S(C)=O)c(C)c1` (stereo not drawn): the LC retention time was found to be 7.28 min.

In the case of `Cc1ncc([N+](=O)[O-])n1CCCO`, the LC retention time was 4.21 min.

Take `CCCCc1c(C)nc(NCC)nc1OS(=O)(=O)N(C)C`: the LC retention time was determined as 10.5 min.

Take `CCOC(=O)CC(SP(=O)(OC)OC)C(=O)OCC` (stereo not drawn): the LC retention time was determined as 7.01 min.

Consider `COc1ccc2c(c1)C13CCCCC1C(C2)N(C)CC3` (stereo not drawn), for which the LC retention time is 6.51 min.

Regarding `CCN(CC)CCOCCOC(=O)C(CC)(CC)c1ccccc1`, the LC retention time was 8.04 min.

Turning to `CCOC(=O)C1(c2ccccc2)CCC=CC1N(C)C` (stereo not drawn), the LC retention time was determined as 5.1 min.

Turning to `CN(C)CCC=C1c2ccccc2COc2ccccc21`, the LC retention time was found to be 7.01 min.

As to `Cc1ccc(S(=O)(=O)NC(=O)NC2C3CCC(C)(C2O)C3(C)C)cc1` (stereo not drawn), the LC retention time came out at 9.79 min.

For the compound `COC1CC(OC2C(C)OC(OC3C(C)=CCC4CC(CC5(CCC(C)C(C(C)C)O5)O4)OC(=O)C4C=C(C)C(O)C5OCC(=CC=CC3C)C45O)CC2OC)OC(C)C1O` (stereo not drawn), the LC retention time is 14.2 min.

For `CCC1(c2ccccc2)C(=O)NCNC1=O`, the LC retention time was 5.29 min.

Consider `NN1CC(=O)N2C(Cc3c([nH]c4ccccc34)C2c2ccc3c(c2)OCO3)C1=O` (stereo not drawn), for which the LC retention time was 7.84 min.

For `COc1cccc2c(C(=O)NC3C4(C)CCC(C4)C3(C)C)cn(CCN3CCOCC3)c12` (stereo not drawn), the LC retention time is 11.7 min.

As for `CN(C)C(CSS(=O)(=O)c1ccccc1)CSS(=O)(=O)c1ccccc1`, the LC retention time came to 9.6 min.

In the case of `COc1ccc(C(O)(c2cncnc2)C2CC2)cc1` (stereo not drawn), the LC retention time turned out to be 7.15 min.

For the compound `O=C(c1cccc2ccccc12)c1cn(CCN2CCOCC2)c2cccc(O)c12`, the LC retention time was 10.1 min.

Consider `COC(=O)c1ccc(C)cc1C1=NC(C)(C(C)C)C(=O)N1` (stereo not drawn), for which the LC retention time came out at 7.16 min.

As for `CC=C1CC(C)C(O)(CO)C(=O)OCC2=CCN3CCC(OC1=O)C23` (stereo not drawn), the LC retention time was 4.01 min.

As for `CCCc1cc(OC)c(CCN)cc1OC`, the LC retention time was found to be 7.46 min.

In the case of `c1ccc(CN(CCN2CCCC2)c2ccccc2)cc1`, the LC retention time was 7.19 min.

Regarding `Nc1nc(N)c2nc(-c3ccccc3)c(N)nc2n1`, the LC retention time was determined as 4.68 min.

On to `CCCCCc1cc(O)c2c(c1)OC(C)(C)C1CCC(C(=O)O)=CC21` (stereo not drawn), for which the LC retention time turned out to be 12.5 min.

For `CCOP(=O)(OCC)Oc1cc(C)nc(C(C)C)n1`, the LC retention time turned out to be 8.65 min.

Consider `Nc1ccc(S(=O)(=O)Nc2ncccn2)cc1`, for which the LC retention time came out at 3.48 min.

With `Cc1ccc(-c2nc3ccc(C)cn3c2CC(=O)N(C)C)cc1`, the LC retention time worked out at 5.8 min.

In the case of `C[N+](C)([O-])CCC(c1ccccc1)c1ccccn1` (stereo not drawn), the LC retention time is 5.39 min.

On to `COCC(=O)N(c1c(C)cccc1C)N1CCOC1=O`, for which the LC retention time amounted to 6.29 min.

Take `CCCCOCCOCCSC#N`: the LC retention time was found to be 8.12 min.

As for `CC(=O)N=c1sc(S(N)(=O)=O)nn1C`, the LC retention time is 4.28 min.

`CN1CCc2cccc3c2C1Cc1ccc(O)c(O)c1-3` (stereo not drawn): the LC retention time came out at 4.28 min.

For the compound `CNC(C)Cc1ccc(O)c(OC)c1` (stereo not drawn), the LC retention time was 3.19 min.

Turning to `CCCCCCOC(=O)NC(=N)c1ccc(NCc2nc3cc(C(=O)N(CCC(=O)OCC)c4ccccn4)ccc3n2C)cc1`, the LC retention time came out at 9.29 min.

For the compound `Cc1cc(C2CC2)nc(Nc2ccccc2)n1`, the LC retention time stood at 11 min.

With `CN(C)CCc1c[nH]c2cccc(O)c12`, the LC retention time came out at 3.29 min.

On to `CN1CCC23c4c5ccc(O)c4OC2C(=O)CCC3(O)C1C5` (stereo not drawn), for which the LC retention time is 2.75 min.

For `CCCCOc1cc(C(=O)OCCN(CC)CC)ccc1N`, the LC retention time stood at 5.94 min.

`NC(N)=NS(=O)(=O)c1ccc(N)cc1`: the LC retention time stood at 1.93 min.

On to `CC1CC(C)C(=O)C(C(O)CC2CC(=O)NC(=O)C2)C1` (stereo not drawn), for which the LC retention time amounted to 5.99 min.

As to `CCC(CC)COC(C(=O)OCCN(C)C)(c1ccccc1)c1ccccc1`, the LC retention time came out at 11.6 min.

For `COc1ccc2[nH]cc(CCNC(C)=O)c2c1`, the LC retention time turned out to be 5.36 min.

Turning to `COc1ccc(CCNCCCC(C#N)(c2ccc(OC)c(OC)c2)C(C)C)cc1OC` (stereo not drawn), the LC retention time came to 6.96 min.

Take `CNC(=O)Oc1cc(C)c(N(C)C)c(C)c1`: the LC retention time came out at 9.3 min.

For the compound `CN(CC=Cc1ccccc1)Cc1cccc2ccccc12`, the LC retention time amounted to 8.52 min.

`CCCCCC(=O)c1ccc(O)cc1O`: the LC retention time is 10.4 min.

For `NCC(O)c1cccc(O)c1` (stereo not drawn), the LC retention time was 1.81 min.

For the compound `CCCCOc1ccc(C(=O)OCCN(CC)CC)cc1`, the LC retention time amounted to 11.3 min.

In the case of `CCN(CC)CC(=O)Nc1c(C)cccc1C(=O)OC`, the LC retention time came to 4.59 min.

On to `CN(C)CCc1c[nH]c2ccc(CC3COC(=O)N3)cc12` (stereo not drawn), for which the LC retention time was determined as 3.61 min.

For the compound `CCSCCSP(=S)(OC)OC`, the LC retention time amounted to 10.2 min.

Regarding `NC(=O)C1CCNCC1`, the LC retention time worked out at 1.26 min.

For the compound `CCCCCn1cc(C(=O)Cc2ccccc2OC)c2ccccc21`, the LC retention time amounted to 11.8 min.

As to `CN(C)C(=O)SCCCCOc1ccccc1`, the LC retention time was found to be 10.7 min.

Turning to `COc1ccccc1OCC(O)COC(N)=O` (stereo not drawn), the LC retention time was found to be 5.21 min.

`CC(Cc1ccccc1)NCCn1cnc2c1c(=O)n(C)c(=O)n2C` (stereo not drawn): the LC retention time came to 5.06 min.

Take `Cc1c(N)c(=O)n(-c2ccccc2)n1C`: the LC retention time was 4.69 min.

In the case of `Cc1ccccc1-n1c(C)nc2ccccc2c1=O`, the LC retention time came out at 7.83 min.

As to `CC(=O)C1CCC2C3CCC4=CC(=O)CCC4(C)C3CCC12C` (stereo not drawn), the LC retention time was 11.2 min.

As to `CN1C2CCCC1CC(NC(=O)c1nn(C)c3ccccc13)C2` (stereo not drawn), the LC retention time was 4.99 min.

Turning to `CN(C)c1ccccc1`, the LC retention time was found to be 6.26 min.

With `CSc1ccc2c(c1)N(CCC1CCCCN1C)c1ccccc1S2=O` (stereo not drawn), the LC retention time was found to be 6.64 min.

With `CC(C)N(CCc1c[nH]c2cccc(O)c12)C(C)C`, the LC retention time amounted to 4.34 min.

With `COC1=CC(=O)OC(C=Cc2ccccc2)C1` (stereo not drawn), the LC retention time is 8.32 min.

As to `CNS(=O)(=O)Cc1ccc2[nH]cc(CCN(C)C)c2c1`, the LC retention time was determined as 3.43 min.

Turning to `CC12CCC3C(CC=C4CC(O)CCC43C)C1CCC2=O` (stereo not drawn), the LC retention time came out at 10.2 min.

On to `CSc1nc2ccccc2s1`, for which the LC retention time stood at 9.79 min.

Take `Cc1nnc(-c2ccccc2)c(=O)n1N`: the LC retention time is 5.24 min.

Consider `CC12Cc3cn[nH]c3CC1CCC1C2CCC2(C)C1CCC2(C)O` (stereo not drawn), for which the LC retention time was determined as 11.3 min.

In the case of `O=C1NCC(=O)N2C1Cc1c([nH]c3ccccc13)C2c1ccc2c(c1)OCO2` (stereo not drawn), the LC retention time was found to be 7.99 min.

The values above are taken from the RepoRT retention time repository (doi:10.1016/j.jhazmat.2019.121712).
